# Source: patent publication US20150105252A1, “SUBSTITUTED PYRAZOLES AS HERBICIDES” (E I DU PONT DE NEMOURS AND COMPANY, priority 2013, published 2015)
# Assays:
# Conditions in all cases: scale 0 to 100
# wheat, winter = experiment: Test D postemergence; type: in vivo, Triticum aestivum
# Source text: (§1) Seeds of plant species selected from bluegrass (annual bluegrass, Poa annua), blackgrass (Alopecurus myosuroides), canarygrass (littleseed canarygrass, Phalaris minor), chickweed (common chickweed, Stellaria media), galium (catchweed bedstraw, Galium aparine), bromegrass, downy (downy bromegrass, Bromus tectorum), field poppy (Papaver rhoeas), field violet (Viola arvensis), foxtail, green (green foxtail, Setaria viridis), deadnettle (henbit deadnettle, Lamium amplexicaule), ryegrass, Italian (Italian ryegrass, Lolium multiflorum), kochia (Kochia scoparia), lambsquarters (Chenopodium album), oilseed rape (Brassica napus), pigweed (redroot pigweed, Amaranthus retroflexus), chamomile (scentless chamomile, Matricaria inodora), speedwell (bird's-eye speedwell, Veronica persica), barley, spring (spring barley, Hordeum vulgare), wheat, spring (spring wheat, Triticum aestivum), buckwheat, wild (wild buckwheat, Polygonum convolvulus), mustard, wild (wild mustard, Sinapis arvensis), oat, wild (wild oat, Avena fatua), radish, wild (wild radish, Raphanus raphanistrum), windgrass (Apera spica-venti), Russian thistle (Salsola kali), barley, winter (winter barley, Hordeum vulgare), and wheat, winter (winter wheat, Triticum aestivum) were planted into a silt loam soil and treated preemergence with test chemicals formulated in a non-phytotoxic solvent mixture which included a surfactant.
# (§2) At the same time, these species were planted in pots containing Redi-Earth® planting medium (Scotts Company, 14111 Scottslawn Road, Marysville, Ohio 43041) comprising spaghnum peat moss, vermiculite, wetting agent and starter nutrients and treated with postemergence applications of the test chemicals formulated in the same manner. Plants ranged in height from 2 to 18 cm (1- to 4-leaf stage). Treated plants and controls were maintained in a controlled growth environment for 14 to 21 days after which time all species were compared to controls and visually evaluated. Plant response ratings, summarized in Table D, are based on a scale of 0 to 100 where 0 is no effect and 100 is complete control. A dash (-) response means no test result.
# wheat, spring = experiment: Test D postemergence; type: in vivo, Triticum aestivum
# Source text: as §1, §2
# chickweed = experiment: Test D preemergence; type: in vivo, Stellaria media
# Source text: as §1, §2
# chamomile = experiment: Test D postemergence; type: in vivo, Matricaria inodora
# Source text: as §1, §2
# galium = experiment: Test D postemergence; type: in vivo, Galium aparine
# Source text: as §1, §2
# buckwheat, wild = experiment: Test D postemergence; type: in vivo, Polygonum convolvulus
# Source text: as §1, §2
# kochia = experiment: Test D preemergence; type: in vivo, Kochia scoparia
# Source text: as §1, §2
# field poppy = experiment: Test D postemergence; type: in vivo, Papaver rhoeas
# Source text: as §1, §2
# foxtail, green = experiment: Test D postemergence; type: in vivo, Setaria viridis
# Source text: as §1, §2
Compound,"Wheat, Winter plant response rating (wheat, winter; Postemergence, 31 g ai/ha)","Wheat, Winter plant response rating (wheat, winter; Postemergence, 125 g ai/ha)","Wheat, Winter plant response rating (wheat, winter; Postemergence, 250 g ai/ha)","Wheat, Winter plant response rating (wheat, winter; postemergence, 62 g ai/ha)","Wheat, Spring plant response rating (wheat, spring; Postemergence, 31 g ai/ha)","Wheat, Spring plant response rating (wheat, spring; Postemergence, 125 g ai/ha)","Wheat, Spring plant response rating (wheat, spring; Postemergence, 250 g ai/ha)","Wheat, Spring plant response rating (wheat, spring; postemergence, 62 g ai/ha)","Plant response rating, Chickweed (chickweed; 31 g ai/ha)","Plant response rating, Chickweed (chickweed; 62 g ai/ha)","Plant response rating, Chickweed (chickweed; 125 g ai/ha)","Plant response rating, Chickweed (chickweed; 250 g ai/ha)","Chamomile plant response rating (chamomile; Postemergence, 31 g ai/ha)","Chamomile plant response rating (chamomile; Postemergence, 125 g ai/ha)","Chamomile plant response rating (chamomile; Postemergence, 250 g ai/ha)","Chamomile plant response rating (chamomile; postemergence, 62 g ai/ha)","Galium plant response rating (galium; Postemergence, 31 g ai/ha)","Galium plant response rating (galium; Postemergence, 125 g ai/ha)","Galium plant response rating (galium; Postemergence, 250 g ai/ha)","Galium plant response rating (galium; postemergence, 62 g ai/ha)",other results
CCc1cc(C(=O)NC(C)C)nn1Cc1ccnc(C(F)(F)F)c1 [Compound 103],0,10,30,5,0,0,5,0,95,100,100,100,10,30,60,30,55,75,80,70,"Buckwheat, Wild plant response rating (buckwheat, wild; Postemergence, 31 g ai/ha): 25; Buckwheat, Wild plant response rating (buckwheat, wild; Postemergence, 125 g ai/ha): 55; Buckwheat, Wild plant response rating (buckwheat, wild; Postemergence, 250 g ai/ha): 60; Buckwheat, Wild plant response rating (buckwheat, wild; postemergence, 62 g ai/ha): 50; Plant response rating, Kochia (kochia; 31 g ai/ha): 10; Plant response rating, Kochia (kochia; 62 g ai/ha): 65; Plant response rating, Kochia (kochia; 125 g ai/ha): 85; Plant response rating, Kochia (kochia; 250 g ai/ha): 100; Field Poppy plant response rating (field poppy; Postemergence, 31 g ai/ha): 40; Field Poppy plant response rating (field poppy; Postemergence, 125 g ai/ha): 60; Field Poppy plant response rating (field poppy; Postemergence, 250 g ai/ha): 70; Field Poppy plant response rating (field poppy; postemergence, 62 g ai/ha): 55; Foxtail, Green plant response rating (foxtail, green; Postemergence, 31 g ai/ha): 30; Foxtail, Green plant response rating (foxtail, green; Postemergence, 125 g ai/ha): 35; Foxtail, Green plant response rating (foxtail, green; Postemergence, 250 g ai/ha): 65; Foxtail, Green plant response rating (foxtail, green; postemergence, 62 g ai/ha): 20"
CCCc1cc(C(=O)NCC(F)(F)F)nn1Cc1cc(C(F)(F)F)nn1C [Compound 138],15,20,35,15,15,15,25,15,100,100,100,100,50,60,65,50,80,100,100,80,"Buckwheat, Wild plant response rating (buckwheat, wild; Postemergence, 31 g ai/ha): 65; Buckwheat, Wild plant response rating (buckwheat, wild; Postemergence, 125 g ai/ha): 70; Buckwheat, Wild plant response rating (buckwheat, wild; Postemergence, 250 g ai/ha): 80; Buckwheat, Wild plant response rating (buckwheat, wild; postemergence, 62 g ai/ha): 65; Plant response rating, Kochia (kochia; 62 g ai/ha): 95; Plant response rating, Kochia (kochia; 125 g ai/ha): 100; Plant response rating, Kochia (kochia; 250 g ai/ha): 100; Field Poppy plant response rating (field poppy; Postemergence, 31 g ai/ha): 55; Field Poppy plant response rating (field poppy; Postemergence, 125 g ai/ha): 65; Field Poppy plant response rating (field poppy; Postemergence, 250 g ai/ha): 75; Field Poppy plant response rating (field poppy; postemergence, 62 g ai/ha): 55; Foxtail, Green plant response rating (foxtail, green; Postemergence, 31 g ai/ha): 15; Foxtail, Green plant response rating (foxtail, green; Postemergence, 125 g ai/ha): 65; Foxtail, Green plant response rating (foxtail, green; Postemergence, 250 g ai/ha): 80; Foxtail, Green plant response rating (foxtail, green; postemergence, 62 g ai/ha): 15"
CCOc1cc(C(=O)NC2CC2)nn1Cc1ccnc(C(F)(F)F)c1 [Compound 189],20,25,50,20,0,5,25,0,95,100,100,100,55,60,65,55,75,75,85,75,"Buckwheat, Wild plant response rating (buckwheat, wild; Postemergence, 31 g ai/ha): 70; Buckwheat, Wild plant response rating (buckwheat, wild; Postemergence, 125 g ai/ha): 70; Buckwheat, Wild plant response rating (buckwheat, wild; Postemergence, 250 g ai/ha): 80; Buckwheat, Wild plant response rating (buckwheat, wild; postemergence, 62 g ai/ha): 70; Plant response rating, Kochia (kochia; 62 g ai/ha): 100; Plant response rating, Kochia (kochia; 125 g ai/ha): 100; Plant response rating, Kochia (kochia; 250 g ai/ha): 100; Field Poppy plant response rating (field poppy; Postemergence, 31 g ai/ha): 55; Field Poppy plant response rating (field poppy; Postemergence, 125 g ai/ha): 75; Field Poppy plant response rating (field poppy; Postemergence, 250 g ai/ha): 75; Field Poppy plant response rating (field poppy; postemergence, 62 g ai/ha): 55; Foxtail, Green plant response rating (foxtail, green; Postemergence, 31 g ai/ha): 20; Foxtail, Green plant response rating (foxtail, green; Postemergence, 125 g ai/ha): 15; Foxtail, Green plant response rating (foxtail, green; Postemergence, 250 g ai/ha): 50; Foxtail, Green plant response rating (foxtail, green; postemergence, 62 g ai/ha): 20"
